Results taken from publication PMC11995078, “Protocol for high-throughput screening of SIRT7 inhibitors using fluorescent peptide technology” (STAR Protocols, 2025).

Target: T1, Sirtuin 7 (SIRT7) (Homo sapiens, UniProt Q9NRC8)
T1 construct: his-tagged full length SIRT7 (pET-28a, E. coli BL21(DE3))
T1 sequence (Q9NRC8 1-400): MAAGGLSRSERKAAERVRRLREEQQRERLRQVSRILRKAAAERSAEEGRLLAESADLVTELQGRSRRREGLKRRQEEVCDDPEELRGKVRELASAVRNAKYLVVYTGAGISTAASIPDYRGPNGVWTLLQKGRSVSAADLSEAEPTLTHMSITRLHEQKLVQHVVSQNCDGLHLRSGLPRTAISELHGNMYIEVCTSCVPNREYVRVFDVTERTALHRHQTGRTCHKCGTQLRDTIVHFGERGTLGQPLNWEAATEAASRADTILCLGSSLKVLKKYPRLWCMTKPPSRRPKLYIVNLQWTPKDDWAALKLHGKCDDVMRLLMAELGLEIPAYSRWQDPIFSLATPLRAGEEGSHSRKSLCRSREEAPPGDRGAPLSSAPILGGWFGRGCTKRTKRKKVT
Assay: fluorescent MCA-peptide (H3K18) deacylation assay with purified SIRT7, dose-response
Assay type: biochemical

## COC(=O)/C(=C\C(=O)c1ccc(O)c(O)c1)c1ccc(O)c(O)c1 [YZL-51N]
  IC50: 12.7 µM
